{"source": "patent US9995734B2", "about": "“Human T cell line assay for evaluating the immunologic identity of glatiramer acetate preparations” (Mylan Inc., priority 2013, dated 2018)", "test_system": "GA-specific T-cell lines", "format": "cell-based, human", "settings": "concentrations approaching and exceeding 10 μg/mL; data not shown", "description": "GA-specific T-cell lines from Donors 1 and 3 were tested for proliferation in response to stimulation with peptide GL 14, poly (Glu-Lys 1:4)."}
{"substance": "poly (Glu-Lys; 1:4) [GL 14]", "values": [{"measurement": "cell death", "result": "causes cell death"}]}
